Legend:
HCT-116 = experiment: Antiproliferative activity against human HCT116 cells after 72 hrs by MTT assay; format: functional, cell-based
[1] = biological target: Tumour suppressor p53/oncoprotein Mdm2 (Homo sapiens, UniProt Q00987); experiment: Competitive inhibition of MDM2/P53 interaction after 1 hr by fluorescence polarization assay; format: protein assay
SW-620 = experiment: Antiproliferative activity against human SW620 cells after 72 hrs by MTT assay; format: functional, cell-based
PC-3 = experiment: Antiproliferative activity against human PC3 cells after 72 hrs by MTT assay; format: functional, cell-based
A549 = experiment: Antiproliferative activity against human A549 cells after 72 hrs by MTT assay; format: functional, cell-based
HL-60 = experiment: Antiproliferative activity against human HL60 cells after 72 hrs by MTT assay; format: functional, cell-based
[2] = biological target: Tumour suppressor p53/oncoprotein Mdm2 (Homo sapiens) (UniProt P04637+Q00987); experiment: Ratio of nutlin-1 IC50 to compound IC50 for MDM2 expressed in Escherichia coli BL-21 and P53 binding interaction after 1 hr by fluorescence polarization competitive binding assay
Chain of Tumour suppressor p53/oncoprotein Mdm2 (Homo sapiens) (P04637 whole entry, looked up): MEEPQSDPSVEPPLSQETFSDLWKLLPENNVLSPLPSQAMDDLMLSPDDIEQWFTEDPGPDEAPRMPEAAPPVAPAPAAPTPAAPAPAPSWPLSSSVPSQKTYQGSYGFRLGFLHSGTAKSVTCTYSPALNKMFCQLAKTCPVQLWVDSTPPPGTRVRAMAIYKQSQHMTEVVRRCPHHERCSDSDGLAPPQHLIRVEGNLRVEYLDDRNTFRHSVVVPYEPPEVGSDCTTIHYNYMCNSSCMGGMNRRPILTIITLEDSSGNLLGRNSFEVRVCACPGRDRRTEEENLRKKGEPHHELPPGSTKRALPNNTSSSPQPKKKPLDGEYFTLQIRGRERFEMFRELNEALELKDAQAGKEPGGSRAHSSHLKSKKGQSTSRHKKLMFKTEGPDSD
Chain of Tumour suppressor p53/oncoprotein Mdm2 (Homo sapiens) (Q00987 whole entry, looked up): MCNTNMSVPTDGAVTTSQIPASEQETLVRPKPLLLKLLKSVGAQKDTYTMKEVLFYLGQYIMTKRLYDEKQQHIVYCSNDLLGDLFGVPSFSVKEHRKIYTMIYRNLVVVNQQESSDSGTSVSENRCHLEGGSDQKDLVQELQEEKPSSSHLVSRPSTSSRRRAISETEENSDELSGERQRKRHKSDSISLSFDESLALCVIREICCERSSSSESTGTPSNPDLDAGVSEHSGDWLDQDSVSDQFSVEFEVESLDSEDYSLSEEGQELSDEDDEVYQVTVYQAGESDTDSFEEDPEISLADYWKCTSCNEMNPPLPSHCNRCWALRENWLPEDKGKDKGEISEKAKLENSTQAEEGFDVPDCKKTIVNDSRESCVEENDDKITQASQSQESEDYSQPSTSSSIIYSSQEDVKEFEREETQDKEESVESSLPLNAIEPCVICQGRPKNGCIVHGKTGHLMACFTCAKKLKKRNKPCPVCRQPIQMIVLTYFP

[3] = Homo sapiens, HCT-116, 72 h, read-out: IC50
[4] = Homo sapiens, SW-620, 72 h, read-out: IC50
[5] = Homo sapiens, PC-3, 72 h, read-out: IC50
[6] = Homo sapiens, A549, 72 h, read-out: IC50
[7] = Homo sapiens, HL-60, 72 h, read-out: IC50

Chain of Tumour suppressor p53/oncoprotein Mdm2 (P04637 whole entry): as the sequence (P04637 whole entry, looked up) above
Chain of Tumour suppressor p53/oncoprotein Mdm2 (Q00987 whole entry): as the sequence (Q00987 whole entry, looked up) above

Row | SMILES | IC50 (HCT-116; hct-116) | IC50 ([1]; read-out: IC50) | IC50 (SW-620; sw-620) | IC50 (PC-3; pc-3) | IC50 (A549; a549) | IC50 (HL-60; hl-60) | IC50 (HCT-116; [3]) | IC50 (SW-620; [4]) | IC50 (PC-3; [5]) | IC50 (A549; [6]) | IC50 (HL-60; [7]) | IC50 ([1]; read-out: pIC50 (converted)) | Ratio IC50 [2]
1 | COc1ccc(C2=N[C@H](c3ccc(Cl)cc3)[C@H](c3ccc(Cl)cc3)N2C(=O)N[C@@H](C)C(=O)N2CCN(C)CC2)c(OC(C)C)c1 | Not Active | 5.96 µM | Not Active | Not Active | Not Active | Not Active | – | – | – | – | – | – | –
2 | COc1ccc(C2=N[C@H](c3ccc(Cl)cc3)[C@H](c3ccc(Cl)cc3)N2C(=O)NCCC(=O)O)c(OC(C)C)c1 | Not Active | 1.07 µM | Not Active | Not Active | Not Active | Not Active | – | – | – | – | – | – | –
3 | COc1ccc(C2=N[C@H](c3ccc(Cl)cc3)[C@H](c3ccc(Cl)cc3)N2C(=O)NCC(=O)N2CCN(C)CC2)c(OC(C)C)c1 | – | 20.6 µM | – | – | – | – | 4.49 µM | 6.17 µM | 3.55 µM | 3.62 µM | 3.29 µM | – | –
4 | COc1ccc(C2=NC(c3ccc(Cl)cc3)C(c3ccc(Cl)cc3)N2C(=O)N2CCN(C(C)=O)CC2)c(OC(C)C)c1 (stereo not given) | – | – | – | – | – | – | 20.5 µM | 33.7 µM | 40.6 µM | 24 µM | 19.5 µM | – | –
5 | COc1ccc(C2=N[C@H](c3ccc(Cl)cc3)[C@H](c3ccc(Cl)cc3)N2C(=O)NCC(=O)N2CCN(C(C)=O)CC2)c(OC(C)C)c1 | – | 5.43 µM | – | – | – | – | 6.41 µM | 8.13 µM | 7.1 µM | 3.42 µM | 5.48 µM | – | –
6 | CCOC(=O)CCNC(=O)N1C(c2ccc(OC)cc2OC(C)C)=N[C@H](c2ccc(Cl)cc2)[C@@H]1c1ccc(Cl)cc1 | – | 3.36 µM | – | – | – | – | 9.22 µM | 9.41 µM | 8.59 µM | 14.3 µM | 7.82 µM | – | –
7 | CCOC(=O)CNC(=O)N1C(c2ccc(OC)cc2OC(C)C)=N[C@H](c2ccc(Cl)cc2)[C@@H]1c1ccc(Cl)cc1 | – | 4.29 µM | – | – | – | – | 4.74 µM | 3.88 µM | 6.89 µM | 3.63 µM | 2.93 µM | – | –
8 | COc1ccc(C2=N[C@H](c3ccc(Cl)cc3)[C@H](c3ccc(Cl)cc3)N2C(=O)NCCC(=O)N2CCOCC2)c(OC(C)C)c1 | – | 2.23 µM | – | – | – | – | 3.78 µM | 5.89 µM | 7.58 µM | 3.96 µM | 3.6 µM | – | –
9 | CCOC(=O)[C@H](C)NC(=O)N1C(c2ccc(OC)cc2OC(C)C)=N[C@H](c2ccc(Cl)cc2)[C@@H]1c1ccc(Cl)cc1 | Not Active | 0.84 µM | Not Active | Not Active | Not Active | Not Active | – | – | – | – | – | – | –
10 | COc1ccc(C2=N[C@H](c3ccc(Cl)cc3)[C@H](c3ccc(Cl)cc3)N2C(=O)N[C@H](C)C(=O)O)c(OC(C)C)c1 | – | 3.27 µM | – | – | – | – | 5.95 µM | 9.2 µM | 5.59 µM | 1.67 µM | 6.7 µM | – | –
11 | CCN(CC)C(=O)[C@H](C)NC(=O)N1C(c2ccc(OC)cc2OC(C)C)=N[C@H](c2ccc(Cl)cc2)[C@@H]1c1ccc(Cl)cc1 | – | 12.6 µM | – | – | – | – | 2.01 µM | 4.6 µM | 5.32 µM | 3.31 µM | 4.22 µM | – | –
12 | COc1ccc(C2=N[C@H](c3ccc(Cl)cc3)[C@H](c3ccc(Cl)cc3)N2C(=O)N[C@@H](C)C(=O)O)c(OC(C)C)c1 | Not Active | 3.39 µM | Not Active | Not Active | Not Active | Not Active | – | – | – | – | – | – | –
13 | COc1ccc(C2=N[C@H](c3ccc(Cl)cc3)[C@H](c3ccc(Cl)cc3)N2C(=O)NCC(=O)N2CCOCC2)c(OC(C)C)c1 | – | 5.27 µM | – | – | – | – | 5.63 µM | 6.25 µM | 7.02 µM | 10.9 µM | 2.99 µM | 5.75 µM | –
14 | COc1ccc(C2=N[C@H](c3ccc(Cl)cc3)[C@H](c3ccc(Cl)cc3)N2C(=O)NCCC(=O)N2CCN(C)CC2)c(OC(C)C)c1 | – | 5.83 µM | – | – | – | – | 2.36 µM | 5.99 µM | 6.83 µM | 5.95 µM | 2.93 µM | – | –
15 | COc1ccc(C2=N[C@H](c3ccc(Cl)cc3)[C@H](c3ccc(Cl)cc3)N2C(=O)NCC(=O)O)c(OC(C)C)c1 | – | 6.18 µM | – | – | – | – | 6.07 µM | 5.7 µM | 3.9 µM | 0.48 µM | 5.73 µM | – | –
16 | CCOC(=O)[C@@H](C)NC(=O)N1C(c2ccc(OC)cc2OC(C)C)=N[C@H](c2ccc(Cl)cc2)[C@@H]1c1ccc(Cl)cc1 | – | 0.59 µM | – | – | – | – | 3.73 µM | 5.52 µM | 2.2 µM | 0.31 µM | 3.78 µM | – | 8
17 | CCN(CC)C(=O)[C@@H](C)NC(=O)N1C(c2ccc(OC)cc2OC(C)C)=N[C@H](c2ccc(Cl)cc2)[C@@H]1c1ccc(Cl)cc1 | – | 5.01 µM | – | – | – | – | 7.53 µM | 8.56 µM | 16.8 µM | > 50 µM | 8.48 µM | – | –
18 | CCN(CC)C(=O)CCCNC(=O)N1C(c2ccc(OC)cc2OC(C)C)=N[C@H](c2ccc(Cl)cc2)[C@@H]1c1ccc(Cl)cc1 | – | 4.18 µM | – | – | – | – | 4.26 µM | 6.45 µM | 7.54 µM | 1.38 µM | 6.93 µM | – | –
19 | COc1ccc(C2=N[C@H](c3ccc(Cl)cc3)[C@H](c3ccc(Cl)cc3)N2C(=O)N[C@H](C)C(=O)N2CCN(C)CC2)c(OC(C)C)c1 | – | 5.96 µM | – | – | – | – | 3.71 µM | 2.74 µM | 6.74 µM | 2.97 µM | 3.17 µM | – | –
20 | COc1ccc(C2=N[C@H](c3ccc(Cl)cc3)[C@H](c3ccc(Cl)cc3)N2C(=O)NCCCC(=O)O)c(OC(C)C)c1 | – | 2.05 µM | – | – | – | – | 6.07 µM | 5.7 µM | 3.9 µM | 0.48 µM | 5.73 µM | – | –
21 | CCN(CC)C(=O)CNC(=O)N1C(c2ccc(OC)cc2OC(C)C)=N[C@H](c2ccc(Cl)cc2)[C@@H]1c1ccc(Cl)cc1 | – | 9.41 µM | – | – | – | – | 5.1 µM | 12.3 µM | 5.84 µM | 4.33 µM | 6.08 µM | – | –
22 | CCOC(=O)CCCNC(=O)N1C(c2ccc(OC)cc2OC(C)C)=N[C@H](c2ccc(Cl)cc2)[C@@H]1c1ccc(Cl)cc1 | – | 1.66 µM | – | – | – | – | 6.65 µM | 8.02 µM | 6.2 µM | 3.25 µM | 5.81 µM | – | –
23 | COc1ccc(C2=N[C@H](c3ccc(Cl)cc3)[C@H](c3ccc(Cl)cc3)N2C(=O)NCC(=O)N2CCCC2)c(OC(C)C)c1 | – | 10.3 µM | – | – | – | – | 3.99 µM | 2.9 µM | 5.87 µM | 3.13 µM | 6.11 µM | – | –
24 | CCN(CC)C(=O)CCNC(=O)N1C(c2ccc(OC)cc2OC(C)C)=N[C@H](c2ccc(Cl)cc2)[C@@H]1c1ccc(Cl)cc1 | – | 0.65 µM | – | – | – | – | 6.39 µM | 3.13 µM | 7.26 µM | 4.03 µM | 4.62 µM | – | –

From ChEMBL document CHEMBL1944528, “Design, synthesis and CoMFA studies of N1-amino acid substituted 2,4,5-triphenyl imidazoline derivatives as p53-MDM2 binding inhibitors” (Bioorg Med Chem, 2012)
